In ChEMBL document CHEMBL4680117, “Discovery of 3,3'-pyrrolidinyl-spirooxindoles as cardioprotectant prohibitin ligands” (Eur J Med Chem, 2020):
pEC50: −log10 of the molar value. Activity calls are given as the source filed them. The rule behind the calls is not given here.

How the values were obtained:
H9c2 [1] = experiment: Cardioprotective activity against rat H9c2 cells assessed as inhibition of doxorubicin-induced ROS production at 1 nM preincubated for 14 hrs followed by loading with DCFDA dye for 45 mins and later exposed to doxorubicin for 3 hrs by DCF-DA probe based fluorescence assay (reference value: 0%); type: functional; settings: H9c2, 17.75 h, time 1065 min
H9c2 [2] = experiment: Cardioprotective activity against rat H9c2 cells assessed as inhibition of doxorubicin-induced ROS production at 0.3 nM preincubated for 14 hrs followed by loading with DCFDA dye for 45 mins and later exposed to doxorubicin for 3 hrs by DCF-DA probe based fluorescence assay (reference value: 0%); type: functional; settings: H9c2, 17.75 h, time 1065 min
H9c2 [3] = experiment: Cardioprotective activity against rat H9c2 cells assessed as inhibition of doxorubicin-induced cytotoxicity by measuring increase in cell suvival at 1 nM preincubated for 10 hrs followed by doxorubicin treatment and measured after 14 hrs by cQuant based analysis (reference value: 0%); type: functional; parameters: scale not given: the % may be the effect or the level left; settings: time 24 hrs
H9c2 [4] = experiment: Cardioprotective activity against rat H9c2 cells assessed as inhibition of doxorubicin-induced cytotoxicity by measuring increase in cell suvival at 0.3 nM preincubated for 10 hrs followed by doxorubicin treatment and measured after 14 hrs by cQuant based analysis (reference value: 0%); type: functional; parameters: scale not given: the % may be the effect or the level left; settings: time 24 hrs
H9c2 [5] = experiment: Cardioprotective activity against rat H9c2 cells assessed as inhibition of doxorubicin-induced ROS production at 10 to 30 nM preincubated for 14 hrs followed by loading with DCFDA dye for 45 mins and later exposed to doxorubicin for 3 hrs by DCF-DA probe based fluorescence assay; type: functional, cell-based; settings: dose 10-30 nM, time 1065.0 min
H9c2 [6] = experiment: Cardioprotective activity against rat H9c2 cells assessed as inhibition of doxorubicin-induced cytotoxicity at 10 to 30 nM preincubated for 10 hrs followed by doxorubicin treatment and measured after 14 hrs by cQuant based analysis; type: functional, cell-based; settings: dose 10-30 nM, time 24.0 hrs
H9c2 [7] = experiment: Binding affinity to PHB1/2 in rat H9c2 cells assessed as induction of STAT3 phosphorylation at 10 nM incubated for 10 to 40 mins by western blot analysis; type: cell-based; settings: time 10-40 min
H9c2 [8] = experiment: Binding affinity to PHB1 in rat H9c2 cells incubated for overnight by AffiGel 10 beads pull down based western blot analysis; type: cell-based
H9c2 [9] = experiment: Binding affinity to PHB2 in rat H9c2 cells incubated for overnight by AffiGel 10 beads pull down based western blot analysis; type: cell-based
MCF7 = experiment: Cytotoxicity against human MCF7 cells; type: functional, cell-based

| SMILES | inhibition at 0.001 µM (H9c2 [1]) [%] | inhibition at 0.0003 µM (H9c2 [2]) [%] | Activity (H9c2 [3]) [%] | Activity (H9c2 [4]) [%] | Activity (H9c2 [5]) | Activity (H9c2 [6]) | Activity (H9c2 [7]) | Activity (H9c2 [8]) | Activity (H9c2 [9]) | pEC50 (MCF7) |
| --- | --- | --- | --- | --- | --- | --- | --- | --- | --- | --- |
| O=C1N[C@@H](c2ccccc2)[C@]2(C(=O)Nc3ccccc32)[C@H]1O | 21.9 | 6.25 | 5.8 | 3 | – | – | – | – | – | – |
| CN(C)C(=O)CN1CC[C@@]2(C(=O)Nc3ccccc32)[C@@H]1c1ccccc1 | 9.4 | 0 | 0.2 | 1.4 | – | – | – | – | – | – |
| CN1C(=O)[C@@]2(c3ccccc31)[C@H](c1ccccc1)N(C)C(=O)[C@@H]2O | 2.1 | 3.2 | 2.9 | 1.9 | – | – | – | – | – | – |
| CN1CC[C@@]2(C(=O)Nc3ccccc32)[C@@H]1c1ccccc1 | 15.6 | 9.4 | 7.6 | 5.4 | – | – | – | – | – | – |
| CCCCN1CC[C@@]2(C(=O)Nc3ccccc32)[C@@H]1c1ccccc1 | 12.5 | 6.2 | 5.7 | 0.9 | – | – | – | – | – | – |
| CCN1CC[C@@]2(C(=O)Nc3ccccc32)[C@@H]1c1ccccc1 | 12.5 | 9.4 | 7.4 | 6 | – | – | – | – | – | – |
| C=CCN1CC[C@@]2(C(=O)Nc3ccccc32)[C@@H]1c1ccccc1 | 20.6 | 12.7 | 11.6 | 4.6 | Active | Active | – | – | – | – |
| COC(=O)[C@H]1C[C@@]2(C(=O)Nc3ccccc32)[C@H](c2ccccc2)N1 | 2.7 | 2.9 | 7.1 | 2.9 | – | – | – | – | – | – |
| COc1cc(OC)c2c(c1)O[C@@]1(c3ccc(Br)cc3)[C@H](c3ccccc3)C[C@@H](O)[C@@]21O | 15.9 | 9.5 | 9.7 | 3.5 | Active | Active | – | – | – | – |
| CC(C)N1CC[C@@]2(C(=O)Nc3ccccc32)[C@@H]1c1ccccc1 | 20.5 | 14.3 | 10.7 | 6.7 | Active | Active | Active | – | – | – |
| O=C(CCC(=O)ON1C(=O)CCC1=O)NCCNC(=O)CNCCOCCOCCOCCN1CCC2(C(=O)Nc3ccccc32)C1c1ccccc1 (stereo not given) | – | – | – | – | – | – | – | Active | Active | – |
| Cc1ccc2c(c1)NC(=O)C21CCNC1c1ccccc1 (stereo not given) | 3.2 | 0 | 2.6 | 0.3 | – | – | – | – | – | – |
| O=C(CN1CC[C@@]2(C(=O)Nc3ccccc32)[C@@H]1c1ccccc1)N1CCOCC1 | 6.2 | 0 | 0.3 | 0.3 | – | – | – | – | – | – |
| O=C1Nc2ccccc2[C@]12CCNC2c1ccccc1 (stereo not given in full) | 18.8 | 12.5 | 11.3 | 7.7 | – | – | – | – | – | 5.46 |
| O=C1Nc2cc(Br)ccc2C12CCNC2c1ccccc1 (stereo not given) | 6.5 | 3.2 | 6.5 | 1.1 | – | – | – | – | – | – |
| CCCN1CC[C@@]2(C(=O)Nc3ccccc32)[C@@H]1c1ccccc1 | 6.2 | 3.1 | 0.8 | 1.3 | – | – | – | – | – | – |
| COC(=O)[C@H]1C[C@]2(C(=O)Nc3ccccc32)[C@@H](c2ccccc2)N1 | 9.4 | 3.1 | 6.4 | 4 | – | – | – | – | – | – |
| O=C1Nc2ccccc2[C@]12CCN(C1CCCC1)[C@H]2c1ccccc1 | 12.5 | 0 | 0.2 | 2.6 | – | – | – | – | – | – |
| O=C(CCC(=O)ON1C(=O)CCC1=O)NCCNC(=O)CNCCOCCOCCOCCN1C(=O)C2(CCNC2c2ccccc2)c2ccccc21 (stereo not given) | – | – | – | – | – | – | – | Active | Active | – |
